From patent US8993752B2, “Neprilysin inhibitors” (Theravance Biopharma R&D IP, LLC, priority 2011, dated 2015)

Molecular target: T1, human NEP (Homo sapiens, UniProt P08473)
T1 construct: purchased R&D Systems, Minneapolis, Minn; 1182-ZN
Assay: In vitro enzyme inhibition assay at human NEP (fluorogenic peptide substrate)
Format: biochemical
Conditions: recombinant human NEP; substrate Mca-D-Arg-Arg-Leu-Dap-(Dnp)-OH 10 μM; 37° C.; values given as ranges; read-out: pKi values at human NEP (converted)
Method: The inhibitory activities of compounds at human and rat neprilysin (EC 3.4.24.11; NEP) and human angiotensin converting enzyme (ACE) were determined using in vitro assays as described below.
Recombinant human NEP and recombinant human ACE were obtained commercially (R&D Systems, Minneapolis, Minn., catalog numbers 1182-ZN and 929-ZN, respectively). The fluorogenic peptide substrate Mca-D-Arg-Arg-Leu-Dap-(Dnp)-OH (Medeiros et al. (1997) Braz. J. Med. Biol. Res. 30:1157-62; Anaspec, San Jose, Calif.) and Abz-Phe-Arg-Lys(Dnp)-Pro-OH (Araujo et al. (2000) Biochemistry 39:8519-8525; Bachem, Torrance, Calif.) were used in the NEP and ACE assays respectively.
The assays were performed in 384-well white opaque plates at 37° C. using the fluorogenic peptide substrates at a concentration of 10 μM in Assay Buffer (NEP: 50 mM HEPES, pH 7.5, 100 mM NaCl, 0.01% polyethylene glycol sorbitan monolaurate (Tween-20), 10 μM ZnSO4; ACE: 50 mM HEPES, pH 7.5, 100 mM NaCl, 0.01% Tween-20, 1 μM ZnSO4).
Test compounds were assayed over the range of concentrations from 10 μM to 20 pM. Test compounds were added to the enzymes and incubated for 30 minute at 37° C. prior to initiating the reaction by the addition of substrate. Reactions were terminated after 20 minutes of incubation at 37° C. by the addition of glacial acetic acid to a final concentration of 3.6% (v/v).
Plates were read on a fluorometer with excitation and emission wavelengths set to 320 nm and 405 nm, respectively Inhibition constants were obtained by nonlinear regression of the data using the equation (GraphPad Software, Inc., San Diego, Calif.): v=v0/[1+(I/K′)] where v is the reaction rate, v0 is the uninhibited reaction rate, I is the inhibitor concentration and K′ is the apparent inhibition constant.
Compounds of the invention were tested in this assay and found to have pKi values at human NEP as follows.

T1 sequence (P08473 whole entry): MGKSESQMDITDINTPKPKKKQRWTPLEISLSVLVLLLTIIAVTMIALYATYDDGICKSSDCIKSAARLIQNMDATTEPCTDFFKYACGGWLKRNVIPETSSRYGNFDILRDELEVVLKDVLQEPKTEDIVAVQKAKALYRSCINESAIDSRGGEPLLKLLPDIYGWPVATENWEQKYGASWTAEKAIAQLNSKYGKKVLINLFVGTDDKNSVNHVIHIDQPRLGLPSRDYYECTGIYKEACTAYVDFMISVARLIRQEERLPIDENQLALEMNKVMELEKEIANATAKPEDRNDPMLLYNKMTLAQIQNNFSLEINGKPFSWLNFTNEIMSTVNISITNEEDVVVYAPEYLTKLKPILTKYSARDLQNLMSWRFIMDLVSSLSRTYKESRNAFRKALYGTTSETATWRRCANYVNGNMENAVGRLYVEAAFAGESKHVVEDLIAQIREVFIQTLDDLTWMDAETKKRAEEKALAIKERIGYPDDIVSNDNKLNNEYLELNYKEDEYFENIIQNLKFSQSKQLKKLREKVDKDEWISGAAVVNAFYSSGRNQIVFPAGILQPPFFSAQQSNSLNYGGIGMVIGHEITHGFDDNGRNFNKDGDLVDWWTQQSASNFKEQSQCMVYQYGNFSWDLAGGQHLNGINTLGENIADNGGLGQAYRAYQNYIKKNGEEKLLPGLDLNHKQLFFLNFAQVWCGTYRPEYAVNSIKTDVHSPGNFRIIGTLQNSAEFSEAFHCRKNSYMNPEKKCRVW

Ki	Compound
1.26 to 10 nM	O=C(N[C@H](Cc1ccccc1Cl)[C@@H](O)C(=O)O)c1cc(C(=O)O)n(Cc2ccc(C(F)(F)F)cc2)n1 [Example 2-25, 5-[(1R,2R)-2-Carboxy-1-(2-chloro-benzyl)-2-hydroxy-ethylcarbamoyl]-2-(4-trifluoromethyl-benzyl)-2H-pyrazole-3-carboxylic acid]
≤ 1 nM	O=C(N[C@H](Cc1ccccc1Cl)[C@@H](O)C(=O)O)c1cc(C(=O)O)n(Cc2ccc(OC(F)F)cc2)n1 [Example 2-26, 5-[(1R,2R)-2-Carboxy-1-(2-chloro-benzyl)-2-hydroxy-ethylcarbamoyl]-2-(4-difluoromethoxy-benzyl)-2H-pyrazole-3-carboxylic acid]
≤ 1 nM	COc1ccc(Cn2nc(C(=O)N[C@H](Cc3ccccc3Cl)[C@@H](O)C(=O)O)cc2C(=O)O)c(F)c1F [Example 2-27, 5-[(1R,2R)-2-Carboxy-1-(2-chloro-benzyl)-2-hydroxy-ethylcarbamoyl]-2-(2,3-difluoro-4-methoxy-benzyl)-2H-pyrazole-3-carboxylic acid]
≤ 1 nM	COc1cc(F)c(Cn2nc(C(=O)N[C@H](Cc3ccccc3Cl)[C@@H](O)C(=O)O)cc2C(=O)O)c(F)c1 [Example 2-32, 5-[(1R,2R)-2-Carboxy-1-(2-chloro-benzyl)-2-hydroxy-ethylcarbamoyl]-2-(2,6-difluoro-4-methoxy-benzyl)-2H-pyrazole-3-carboxylic acid]
≤ 1 nM	O=C(N[C@H](Cc1ccccc1Cl)[C@@H](O)C(=O)O)c1cc(C(=O)O)n(Cc2ccc(OC(F)(F)F)cc2)n1 [Example 2-33, 5-[(1R,2R)-2-Carboxy-1-(2-chloro-benzyl)-2-hydroxy-ethylcarbamoyl]-2-(4-trifluoromethoxy-benzyl)-2H-pyrazole-3-carboxylic acid]
≤ 1 nM	COc1c(F)cc(Cn2nc(C(=O)N[C@H](Cc3ccccc3Cl)[C@@H](O)C(=O)O)cc2C(=O)O)cc1F [Example 2-34, 5-[(1R,2R)-2-Carboxy-1-(2-chloro-benzyl)-2-hydroxy-ethylcarbamoyl]-2-(3,5-difluoro-4-methoxy-benzyl)-2H-pyrazole-3-carboxylic acid]
≤ 1 nM	COc1c(F)c(F)c(Cn2nc(C(=O)N[C@H](Cc3ccccc3Cl)[C@@H](O)C(=O)O)cc2C(=O)O)c(F)c1F [Example 2-35, 5-[(1R,2R)-2-Carboxy-1-(2-chloro-benzyl)-2-hydroxy-ethylcarbamoyl]-2-(2,3,5,6-tetrafluoro-4-methoxy-benzyl)-2H-pyrazole-3-carboxylic acid]
1.26 to 10 nM	COc1ccc(Cn2nc(C(=O)N[C@H](Cc3ccccc3Cl)[C@@H](O)C(=O)O)cc2C(=O)O)cc1F [Example 2-37, 5-[(1R,2R)-2-Carboxy-1-(2-chloro-benzyl)-2-hydroxy-ethylcarbamoyl]-2-(3-fluoro-4-methoxy-benzyl)-2H-pyrazole-3-carboxylic acid]
≤ 1 nM	O=C(N[C@H](Cc1ccccc1Cl)[C@@H](O)C(=O)O)c1cc(C(=O)O)n(Cc2ccc(OC(F)(F)F)c(F)c2)n1 [Example 2-39, 5-[(1R,2R)-2-Carboxy-1-(2-chloro-benzyl)-2-hydroxy-ethylcarbamoyl]-2-(3-fluoro-4-trifluoromethoxy-benzyl)-2H-pyrazole-3-carboxylic acid]
1.26 to 10 nM	Cc1ccc(Cn2nc(C(=O)N[C@H](Cc3ccccc3Cl)[C@@H](O)C(=O)O)cc2C(=O)O)cc1 [Example 2-40, 5-[(1R,2R)-2-Carboxy-1-(2-chloro-benzyl)-2-hydroxy-ethylcarbamoyl]-2-(4-methyl-benzyl)-2H-pyrazole-3-carboxylic acid]

Second part, the compound before the results:

Compound	Ki
O=C(N[C@H](Cc1ccccc1Cl)[C@@H](O)C(=O)O)c1cc(C(=O)O)n(Cc2ccc(Cl)cc2)n1 [Example 2-1, 5-[(1R,2R)-2-Carboxy-1-(2-chloro-benzyl)-2-hydroxy-ethylcarbamoyl]-2-(4-chloro-benzyl)-2H-pyrazole-3-carboxylic acid]	1.26 to 10 nM
O=C(N[C@H](Cc1ccccc1Cl)[C@@H](O)C(=O)O)c1cc(C(=O)O)n(Cc2c(F)cc(Cl)cc2F)n1 [Example 2-2, 5-[(1R,2R)-2-Carboxy-1-(2-chloro-benzyl)-2-hydroxy-ethylcarbamoyl]-2-(4-chloro-2,6-difluoro-benzyl)-2H-pyrazole-3-carboxylic acid]	1.26 to 10 nM
O=C(N[C@H](Cc1ccccc1Cl)[C@@H](O)C(=O)O)c1cc(C(=O)O)n(Cc2ccc(Cl)c(SC(F)(F)F)c2)n1 [Example 2-9, 5-[(1R,2R)-2-Carboxy-1-(2-chloro-benzyl)-2-hydroxy-ethylcarbamoyl]-2-(4-chloro-3-trifluoromethylsulfanyl-benzyl)-2H-pyrazole-3-carboxylic acid]	12.6 to 100 nM
O=C(N[C@H](Cc1ccccc1Cl)[C@@H](O)C(=O)O)c1cc(C(=O)O)n(Cc2cccc(Cl)c2)n1 [Example 2-10, 5-[(1R,2R)-2-Carboxy-1-(2-chloro-benzyl)-2-hydroxy-ethylcarbamoyl]-2-(3-chloro-benzyl)-2H-pyrazole-3-carboxylic acid]	1.26 to 10 nM
COc1cccc(Cn2nc(C(=O)N[C@H](Cc3ccccc3Cl)[C@@H](O)C(=O)O)cc2C(=O)O)c1 [Example 2-11, 5-[(1R,2R)-2-Carboxy-1-(2-chloro-benzyl)-2-hydroxy-ethylcarbamoyl]-2-(3-methoxy-benzyl)-2H-pyrazole-3-carboxylic acid]	1.26 to 10 nM
O=C(N[C@H](Cc1ccccc1Cl)[C@@H](O)C(=O)O)c1cc(C(=O)O)n(Cc2ccc(Cl)cc2C(F)(F)F)n1 [Example 2-12, 5-[(1R,2R)-2-Carboxy-1-(2-chloro-benzyl)-2-hydroxy-ethylcarbamoyl]-2-(4-chloro-2-trifluoromethyl-benzyl)-2H-pyrazole-3-carboxylic acid]	12.6 to 100 nM
O=C(N[C@H](Cc1ccccc1Cl)[C@@H](O)C(=O)O)c1cc(C(=O)O)n(Cc2ccc(Cl)c(OC(F)(F)F)c2)n1 [Example 2-13, 5-[(1R,2R)-2-Carboxy-1-(2-chloro-benzyl)-2-hydroxy-ethylcarbamoyl]-2-(4-chloro-3-trifluoromethoxy-benzyl)-2H-pyrazole-3-carboxylic acid]	12.6 to 100 nM
O=C(N[C@H](Cc1ccccc1Cl)[C@@H](O)C(=O)O)c1cc(C(=O)O)n(Cc2c(F)ccc(Cl)c2F)n1 [Example 2-14, 5-[(1R,2R)-2-Carboxy-1-(2-chloro-benzyl)-2-hydroxy-ethylcarbamoyl]-2-(3-chloro-2,6-difluoro-benzyl)-2H-pyrazole-3-carboxylic acid]	1.26 to 10 nM
O=C(N[C@H](Cc1ccccc1Cl)[C@@H](O)C(=O)O)c1cc(C(=O)O)n(Cc2cc(F)ccc2Cl)n1 [Example 2-15, 5-[(1R,2R)-2-Carboxy-1-(2-chloro-benzyl)-2-hydroxy-ethylcarbamoyl]-2-(2-chloro-5-fluoro-benzyl)-2H-pyrazole-3-carboxylic acid]	1.26 to 10 nM
O=C(N[C@H](Cc1ccccc1Cl)[C@@H](O)C(=O)O)c1cc(C(=O)O)n(Cc2cc(F)cc(Cl)c2)n1 [Example 2-16, 5-[(1R,2R)-2-Carboxy-1-(2-chloro-benzyl)-2-hydroxy-ethylcarbamoyl]-2-(3-chloro-5-fluoro-benzyl)-2H-pyrazole-3-carboxylic acid]	1.26 to 10 nM
COc1c(F)cc(Cn2nc(C(=O)N[C@H](Cc3ccccc3Cl)[C@@H](O)C(=O)O)cc2C(=O)O)cc1Cl [Example 2-17, 5-[(1R,2R)-2-Carboxy-1-(2-chloro-benzyl)-2-hydroxy-ethylcarbamoyl]-2-(3-chloro-5-fluoro-4-methoxy-benzyl)-2H-pyrazole-3-carboxylic acid]	1.26 to 10 nM
O=C(N[C@H](Cc1ccccc1Cl)[C@@H](O)C(=O)O)c1cc(C(=O)O)n(Cc2ccc(Cl)c(C(F)(F)F)c2)n1 [Example 2-18, 5-[(1R,2R)-2-Carboxy-1-(2-chloro-benzyl)-2-hydroxy-ethylcarbamoyl]-2-(4-chloro-3-trifluoromethyl-benzyl)-2H-pyrazole-3-carboxylic acid]	12.6 to 100 nM
O=C(N[C@H](Cc1ccccc1Cl)[C@@H](O)C(=O)O)c1cc(C(=O)O)n(Cc2ccccc2Cl)n1 [Example 2-19, 5-[(1R,2R)-2-Carboxy-1-(2-chloro-benzyl)-2-hydroxy-ethylcarbamoyl]-2-(2-chloro-benzyl)-2H-pyrazole-3-carboxylic acid]	1.26 to 10 nM
O=C(N[C@H](Cc1ccccc1Cl)[C@@H](O)C(=O)O)c1cc(C(=O)O)n(Cc2ccc(F)cc2)n1 [Example 2-20, 5-[(1R,2R)-2-Carboxy-1-(2-chloro-benzyl)-2-hydroxy-ethylcarbamoyl]-2-(4-fluoro-benzyl)-2H-pyrazole-3-carboxylic acid]	1.26 to 10 nM
COc1ccc(Cn2nc(C(=O)N[C@H](Cc3ccccc3Cl)[C@@H](O)C(=O)O)cc2C(=O)O)cc1 [Example 2-21, 5-[(1R,2R)-2-Carboxy-1-(2-chloro-benzyl)-2-hydroxy-ethylcarbamoyl]-2-(4-methoxy-benzyl)-2H-pyrazole-3-carboxylic acid]	≤ 1 nM
